Test results from patent publication US5434053A, “Detection of antibiotics” (Gist-Brocades N.V., priority 1992, dated 1995).

Tests used:
[1] = tested on: antibiotic binding protein; assay: Antibiotic residue test for β-lactams in milk (sequential assay; HRPO-labelled antibiotic binding protein, immobilized 7ACA-spacer-BSA); design: species or system Bacillus stearothermophilus; settings: for sensitivity ppb: test according to Example 1, other β-lactams; for reader units expressed in %: measured at 650 nanometer
Procedure: A grown culture of an antibiotic sensitive microorganism in this example Bacillus stearothermophilus (continuous culture art. #108 Porton Products Ltd, UK) was lysed overnight at 4° C. with lysozyme, DNAse and triton X-100 in 0.1M phosphate pH 7.0. The lysate was centrifuged for 30 minutes at approximately 1600×g (4° C.). After centrifugation the supernatant was mixed with an antibiotic affinity gel matrix, for example to prepare a 7-aminocephalosporanic acid (7ACA) affinity gel matrix the following method was used.
The 7ACA-affigel and the supernatant of the lysed culture was mixed for 3 hours at 20° C. gently on a shaker. The gel was washed six times with 0.1M phosphate+1M NaCl pH 7.0. For each wash was used 500 ml.
In this example horse-radish peroxidase (HRPO) is used. 1 mg HRPO (suitable for labelling) in 1 ml of distilled water (d.i.-water) and 0.2 ml 0.1M Na-periodate was mixed 20 minutes at 20° C. and dialysed overnight at 4° C. against 0.001M Na-acetate pH 4.4. This dialysate was adjusted to pH 9.0-9.6 by adding 25 μl of 0.1M carbonate. Directly hereafter 1 mg abp (Pierce protein assay) was added into the dialysate. The mixture was gently shaken for 2 hours at room temperature. Thereafter 150 μl of 4 mg Na-borohydride/ml d.i.-water was added to the mixture, this was incubated for 2 hours at 4° C.
40 mg of 7ACA was added to 4 ml of 50 mM Hepes (pH 7.5) solution. After dissolving the pH was adjusted to pH 7.0 with 1N NaOH. Hereafter 20 mg BSA and 40 mg Bis(sulfosuccinicmidyl)suberate (spacer) and an extra 2 ml of 50 mM Hepes solution was added. The mixture was gently shaken for 45 minutes at 20° C.
0.125 ml dialysate (7ACA-spacer-BSA conjugate) was added to 500 ml carbonate pH 9.6. 0.5 ml of this solution was added to the polystyrene star tubes (NUNC MAXISORB®). Tubes were covered and incubated overnight at 4° C. After incubation the β-lactam spacer protein conjugate dilution was removed from the tubes and 2 ml 0.05M phosphate+0.5% BSA+2% sucrose+0.1M glycine pH 7.2 was added to each tube. After 1 hour at 20° C. the tubes were emptied and dried for 48 hours at 22°-27° C. with less than 30% humidity. Dried tubes are stable for at least 1 year at 4° C.
0.2 ml of milk sample and 0,2 ml of a diluted abp-enzyme conjugate was added to an empty reaction ampoule. After incubation for 2 minutes at 64° C. the contents of the tube was transferred to the coated tube. After the second incubation of 2 minutes at 64° C. the contents of the coated tube was dumped into the sink and the tubes were washed three times with 50×diluted wash solution by filling the tubes, dumping the contents into the sink and removing residuals by tapping on absorbent paper. After the wash, 0.5 ml of TM-blue® colour-substrate was added into the tube. This incubation for 4 minutes at room temperature was stopped by adding 0.5 ml of stop solution (1.5% NaF). The colour development at 650 nm was compared with an antibiotic standard tested along with the sample.

[2] = tested on: anti-gentamycin-rabbit antibody; assay: Antibiotic residue test for gentamycin in milk (sequential assay; antibody/HRPO-protein A conjugate, immobilized gentamycin-spacer-BSA); assay type: binding; settings: for reader units expressed in %: measured at 650 nanometer
Procedure: The gentamycin assay is in general developed with the same basics as the β-lactam-assay. We will therefore give in this example the same outline as the β-lactam assay of Example 1 with description of differences.
A commercial anti-gentamycin-rabbit antibody is obtained from Biodesign International, Kennebunkport, Me., U.S.A. The anti-gentamycin-rabbit antiserum is absorbed to remove the bovine serum albumin (BSA) carrier antibodies. A solution containing 10 mg/ml sulfosuccinicmidylsuberate-BSA and 2 mg of unreacted BSA is mixed with the raw antiserum in the ratio of 10 to 1. This removes all detectable reactivity with BSA.
Absorbed anti-gentamycin antiserum is reacted with horseradish peroxidase labelled Staphylococcus aureus protein A to form an antibiotic binding protein enzyme conjugate. An optimal ratio of antibody to protein A is determined by forming the assay with checkerboard titrations of the two components diluted in phosphate buffered saline containing 1% BSA.
In this example gentamycin is used for conjugation to Bovine Serum Albumin (BSA). A spacer between gentamycin and the BSA is used to obtain the best affinity and specificity. The spacer is the same as used in Example 1.
As described in the β-lactam test, the gentamycin-spacer-protein conjugate is coated to a solid phase.
The same test method as described in Example 1 for the β-lactam test can be used for the gentamycin test. However, this test uses all incubations at a temperature of 20° C.

CC1(C)S[C@@H]2[C@H](NC(=O)[C@H](N)c3ccc(O)cc3)C(=O)N2[C@H]1C(=O)O [Amoxicillin]
sensitivity ppb [1]: 5 ppb

CC(=O)OCC1=C(C(=O)O)N2C(=O)[C@@H](NC(=O)CSc3ccncc3)[C@H]2SC1 [Cephapirin]
sensitivity ppb [1]: 5 ppb

CC1(C)S[C@@H]2[C@H](NC(=O)[C@H](N)c3ccccc3)C(=O)N2[C@H]1C(=O)O [Ampicillin]
sensitivity ppb [1]: 10 ppb

gentamycin [gentamycine]
reader units expressed in % ([2]; 2.5 ppb gentamycine present in sample): 55% | reader units expressed in % ([2]; 5 ppb gentamycine present in sample): 39% | reader units expressed in % ([2]; 10 ppb gentamycine present in sample): 31% | reader units expressed in % ([2]; 20 ppb gentamycine present in sample): 23% | reader units expressed in % ([2]; 30 ppb gentamycine present in sample): 20% | reader units expressed in % ([2]; 36 ppb gentamycine present in sample): 18% | detectable gentamycin residue, can be lowered to (referred to Table III) ([2]; milk, all incubations at 20° C.): 2.5 ppb | lowest detectable gentamycin residue ([2]; milk, total incubation time 8 minutes, all incubations at 20° C.): 30 ppb

CC1(C)S[C@@H]2[C@H](NC(=O)Cc3ccccc3)C(=O)N2[C@H]1C(=O)O [Pen. G, benzylpenicillin]
reader units expressed in % ([1]; 1.25 ppb Pen. G present in sample, milk): 96% | reader units expressed in % ([1]; 2 ppb Pen. G present in sample, milk): 69% | reader units expressed in % ([1]; 3 ppb Pen. G present in sample, milk): 65% | reader units expressed in % ([1]; 4 ppb Pen. G present in sample, milk): 51% | reader units expressed in % ([1]; 5 ppb Pen. G present in sample, milk): 47% | reader units expressed in % ([1]; 10 ppb Pen. G present in sample, milk): 32% | lowest detectable benzylpenicillin residue (test sensitivity) ([1]; milk, total incubation time 8 minutes (test time not exceeding about 12 minutes)): 5 ppb

CO/N=C(\C(=O)N[C@@H]1C(=O)N2C(C(=O)O)=C(CSC(=O)c3ccco3)CS[C@H]12)c1csc(N)n1 [Ceftiofur]
sensitivity ppb [1]: 5 ppb
